Laboratory results as given in PMC11031590, “Narazaciclib, a novel multi-kinase inhibitor with potent activity against CSF1R, FLT3 and CDK6, shows strong anti-AML activity in defined preclinical models” (Scientific Reports, 2024).

Legend:
Ba/F3-FLT3-ITD (Y842H) = Ba/F3-FLT3-ITD (Y842H) proliferation assay; format: cell-based, mouse
Method: (§1) The recombinant Ba/F3 cell lines overexpressing human CSF1R, or human RBM6-CSF1R, or human ETV6-CSF1R were generated using a retrovirus vector (Kyinno Co., Ltd. Beijing). The recombinant Ba/F3 lines overexpressing human Kras G12C orEGFR-L718Q mutants, and different mutant variants of FLT3 were also similarly created as well. A standard proliferation assay via CTG readout was performed according to the vendor’s instructions (KYinno Biotechnology Co., Ltd. Beijing).

Ba/F3-FLT3-F691L = Ba/F3-FLT3-F691L proliferation assay; format: cell-based, mouse
Method: as §1

Ba/F3-FLT3-N701K = Ba/F3-FLT3-N701K proliferation assay; format: cell-based, mouse
Method: as §1

[1] = tested on: MV-4-11 subcutaneous xenograft; assay: MV-4-11 subcutaneous xenograft model; format: in vivo, NOD/scid mice; conditions: narazaciclib 100 mg/kg intraperitoneally twice per week for 3 weeks
Description: The subcutaneous cell line xenograft (CDX) models and systemic patient-derived xenograft (PDX) models of AML have been extensively described before. For the subcutaneous MV-4-11 CDX model, 5 × 10^6 MV-4-11 tumor cells harvested from exponential growth phase were mixed with Matrigel (1:1) and then inoculated into the right front flank region of 6- to 7-week-old female NOD/scid mice for tumor development. MV-4-11 tumor-bearing mice were randomized into 5 groups (N = 8) when their tumor volume reached approximately 100 mm^3 and received their designated treatments following randomization. Narazaciclib was administrated intraperitoneally at 100 mg/kg twice per week for 3 weeks, while Azacitidine was administrated intraperitoneally at 3 mg/kg twice per week for 3 weeks. For the subcutaneous Ba/F3-ETV6-CSF1R CDX model, 1 × 10^6 Ba/F3-ETV6-CSF1R tumor cells harvested from exponential growth phase were mixed with Matrigel (1:1) and then inoculated into the right front flank region of 6- to 8-week-old female NOD/scid mice for tumor development. Ba/F3-ETV6-CSF1R tumor-bearing mice were randomized into 5 groups (N = 6) when their tumor volume reached approximately 100 mm^3 and received their designated treatments following randomization. […] Tumor volume and body weight were measured at different time points and tumor growth inhibition (TGI) was used as index to determine the therapeutic efficacy.

AM7577 AML-PDX = assay: AM7577 systemic AML-PDX model; format: in vivo, NOD/scid mice
Method: (§2) For systemic AML-PDX models, the model establishment and narazaciclib pharmacology experiment were performed essentially as described previously. Briefly, 2 × 10^6 AM7407 cells, or 2 × 10^6 AM7577 cells, or 2 × 10^6 AM5512 cells, or 1.65 × 10^6 AM8096 cells were inoculated intravenously into 4- to 5-week-old female NOD/scid mice for AML development. Engraftment was confirmed by the presence of circulating human CD45+ cells (anti-human CD45 antibody, Cat. 304038, Biolegend) in peripheral blood. Mice with successful engraftment of AML-PDX were randomized into different treatment groups (N = 6) and received their designated treatments. Narazaciclib was administrated orally or intraperitoneally at 10 mg/kg, or 30 mg/kg, or 100 mg/kg every day throughout the study, while Cytarabine was administrated intraperitoneally at 3 mg/kg every day. Following the initiation of designated treatments, leukemic burden was monitored by flow cytometry with anti-human CD45 antibody on the peripheral blood every week as well as on the peripheral blood, bone marrow cells and splenocytes of mice at sacrifice. Mice were sacrifice once the followings are observed: body weight loss over 20%, reduced motility and activity, labored breathing, ruffled coat, hunched back and severe dehydration.

AM8096 AML-PDX = assay: AM8096 systemic AML-PDX model; format: in vivo, NOD/scid mice
Method: as §2

AM5512 AML-PDX = assay: AM5512 systemic AML-PDX model; format: in vivo, NOD/scid mice; conditions: AM5512, 100 mg/kg orally every day
Method: as §2

## CN1CCN(c2ccc(Nc3ncc4cc(C#N)c(=O)n(C5CCCC5)c4n3)cc2)CC1 [Narazaciclib, narazaciclib]
Ba/F3-FLT3-ITD (Y842H)
  % of Ba/F3-FLT3 (IC50): 11.20%
Ba/F3-FLT3-ITD (Y842H); Mus musculus
  IC50: 33.7 nM
Ba/F3-FLT3-F691L
  % of Ba/F3-FLT3 (IC50): 44.19%
Ba/F3-FLT3-F691L; Mus musculus
  IC50: 133 nM
Ba/F3-FLT3-N701K
  % of Ba/F3-FLT3 (IC50): 131.40%
Ba/F3-FLT3-N701K; Mus musculus
  IC50: 396 nM
[1]
  anti-AML activity (tumor growth): significant anti-AML activity
AM7577 AML-PDX; 100 mg/kg orally every day
  leukemic load in peripheral blood: completely diminished the leukemic load in peripheral blood
AM7577 AML-PDX; AM7577
  leukemic load in peripheral blood, spleen and bone marrow: reduce the leukemic load in peripheral blood and spleen, but also the leukemic load in bone marrow
AM7577 AML-PDX; AM7577, 100 mg/kg
  leukemic burdens in spleen and bone marrow: significantly reduced the leukemic burdens in both spleen and bone marrow
AM7577 AML-PDX; AM7577, different dose levels
  leukemic burdens, dose dependence: reduced the leukemic burdens in a dose-dependent manner
AM8096 AML-PDX; AM8096
  leukemic load in peripheral blood, spleen and bone marrow: reduce the leukemic load in peripheral blood and spleen, but also the leukemic load in bone marrow
AM8096 AML-PDX; AM8096, different dose levels
  leukemic burdens, dose dependence: reduced the leukemic burdens in a dose-dependent manner
AM8096 AML-PDX; AM8096, narazaciclib 100 mg/kg intraperitoneally every day
  response of model: responded completely
AM5512 AML-PDX
  response of model: did not respond
